Consider 31 molecules from patent publication US20240246995A1, “PYRIMIDINONE DERIVATIVE AND PREPARATION METHOD THEREFOR, PHARMACEUTICAL COMPOSITION, AND USE” (SHANGHAI SIMR BIOTECHNOLOGY CO., LTD., priority 2021, published 2024).

As usually defined, the IC50 is the point on the concentration scale where inhibition reaches its midpoint.

In this experiment the target is T1, Lipoprotein-Related Phospholipase A2 (Lp-PLA2) in Human Plasma (Homo sapiens, UniProt Q13093).
T1 construct: 40 μL of equally-divided and thawed mixed human plasma is pre-added; from tissue; host or cells: mixed (pooled) human plasma
T1 sequence (Q13093 22-441): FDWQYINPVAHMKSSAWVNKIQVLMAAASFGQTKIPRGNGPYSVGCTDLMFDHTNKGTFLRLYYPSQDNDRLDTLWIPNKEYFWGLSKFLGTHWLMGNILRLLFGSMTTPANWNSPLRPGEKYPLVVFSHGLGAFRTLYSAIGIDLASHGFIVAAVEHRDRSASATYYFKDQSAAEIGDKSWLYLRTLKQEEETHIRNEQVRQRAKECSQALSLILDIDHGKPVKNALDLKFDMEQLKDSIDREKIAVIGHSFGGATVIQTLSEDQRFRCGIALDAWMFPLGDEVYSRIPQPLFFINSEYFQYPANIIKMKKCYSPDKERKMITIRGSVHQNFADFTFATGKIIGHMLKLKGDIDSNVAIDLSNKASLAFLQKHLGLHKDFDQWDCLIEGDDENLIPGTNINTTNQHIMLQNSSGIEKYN
Kind of experiment: Determination of Lp-PLA2 in human plasma (Thio-PAF assay). The format is biochemical. The settings on record: mixed human plasma, 2-thio-PAF substrate, 30 minutes pre-incubation at room temperature. From the text:
Determination of Lipoprotein-Related Phospholipase A2 (Lp-PLA2) in Human Plasma.
Human plasma determination utilizes a thioester analogue of phosphatidylcholine (PAF), where hydrolysis leads to the formation of phospholipids containing free thiol groups. The amount of the thiol groups is continuously determined by reacting with CPM (7-diethylamino-3-(4′-maleimidophenyl)-4-methylcoumarin), which is maleimide with increased fluorescence after Michael addition of the thiol groups. This determination can detect the activity of Lp-PLA2 in human plasma, for example, determined by the specific inhibition of the Lp-PLA2 inhibitors.
Thio-PAF determination, as quenched 75 μL determination, is carried out. A compound source plate is prepared by preparing a 1:3 (volume) series of diluents of each compound in pure DMSO on a 96-well microplate. A Rainin multi-channel pipette is used to transfer 3 μL of a compound on the compound source plate into a 96-well microplate where 57 μL of a determination buffer is pre-added, and the compound on the source plate is diluted by 20 folds. The above determination buffer contains 50 mM HEPES (pH 7.4), 150 mM NaCl, and 1 mM CHAPS. A Rainin multi-channel pipette is used to transfer 1 μL of the compound subjected to 20-fold dilution into a 96-well Greiner 655076 (black) microplate where 40 μL of equally-divided and thawed mixed human plasma is pre-added. The plate is oscillated for 20 seconds in an Elisa plate oscillator to be mixed evenly. After 30 minutes of pre-incubation at the room temperature, a Rainin multi-channel pipette is used to add 10 μL of a substrate solution to a 96-well Greiner 655076 (black) microplate, and the substrate solution contains 2.5 mM 2-thio-PAF [from ethanol mother liquor], 32 μM CPM [from DMSO mother liquor] and 3.2 mM NEM (N-ethylmaleimide) [newly prepared in DMSO for each experiment] in a determination buffer composed of 50 mM HEPES (pH 7.4), 150 mM NaCl, and 1 mM CHAPS. After 2 minutes, 25 μL of a 5% trifluoroacetic acid (TFA) aqueous solution is used for quenching the reaction. The plate is centrifuged at 2000 rpm for 1 minute. A Biotek Synergy H1 (H1MF) Elisa reader is used to read the plate at ex:380/em:485. GraphPad Prism 6.0 and Excel are used for IC50 data, curve, and QC analysis.
`O=c1nc(OCc2ccc(Oc3ccnc(C(F)(F)F)c3)c(F)c2)cc2n1CC[C@]13CO[C@H](CN21)C3` [Example 1, (7aS,10S)-2-((3-fluoro-4-((2-(trifluoromethyl)pyrid-4-yl)oxy)benzyl)oxy)-6,7,10,11-tetra hydro-4H,8H-7a,10-methanopyrimido[6′,1′:2,3]pyrimido[6,1-c][1,4]oxazin-4-one]: the half-inhibitory concentration (IC50) came to 5 nM.

On to `O=c1nc(OCc2cc(F)c(Oc3ccnc(C(F)(F)F)c3)c(F)c2)cc2n1CC[C@]13CO[C@H](CN21)C3` [Example 3], for which the IC50 was 7.7 nM. Turning to `Cc1cc(Oc2c(F)cc(COc3cc4n(c(=O)n3)CC[C@]35CO[C@H](CN43)C5)cc2F)ccn1` [Example 4], the half-inhibitory concentration (IC50) was determined as 11.2 nM. Next, `N#Cc1cc(COc2cc3n(c(=O)n2)CC[C@]24CO[C@H](CN32)C4)ccc1Oc1cccc(C(F)(F)F)c1` [Example 5]: 4.5 nM. Regarding `O=c1nc(OCc2cc(F)c(Oc3ccnc(Cl)c3)c(F)c2)cc2n1CC[C@]13CO[C@H](CN21)C3` [Example 6], the IC50 stood at 5 nM. Consider `O=c1nc(OCc2cc(F)c(Oc3ccnc(OC(F)(F)F)c3)c(F)c2)cc2n1CC[C@]13CO[C@H](CN21)C3` [Example 7], for which the IC50 turned out to be 3.6 nM. The same measure for `O=c1nc(OCc2ccc(Oc3ccnc(C(F)F)c3)c(F)c2)cc2n1CC[C@]13CO[C@H](CN21)C3` [Example 8]: 8.1 nM; for `O=c1nc(OCc2cc(F)c(Oc3cnc(C(F)(F)F)nc3)c(F)c2)cc2n1CC[C@]13CO[C@H](CN21)C3` [Example 9]: 6.3 nM; for `N#Cc1cc(COc2cc3n(c(=O)n2)CC[C@]24CO[C@H](CN32)C4)ccc1F` [Example 10]: 10.8 nM.

As for `O=c1nc(OCCc2ccc(Oc3ccc(Cl)c(C(F)(F)F)c3)cc2)cc2n1CC[C@]13CO[C@H](CN21)C3` [Example 11, (7aS, 10S)-2-(4-(4-chloro-3-(trifluoro-methyl)phenoxy)phenylethoxy)-6,7, 10,11-tetrahydro-4H,8H-7a,10-methanopyrimido [6′,1′:2,3]pyrimido [6,1-c][1,4]oxazin-4-one], the IC50 was found to be 8.9 nM. For the molecule `O=c1nc(OCc2cc(F)c(Oc3ccnc(C(F)(F)F)c3)c(F)c2)cc2n1CCC13CC(CN21)C3` [Example 12, 2-((3,5-difluoro-4-((2-(trifluoromethyl)pyrid-4-yl)oxy)benzyl)oxy)-6,7,9,10-tetrahydro-4H, 8H-7a,9-methano-pyrimido[1,6-a] pyrrolo[1,2-c]pyri-midine-4-one], the IC50 was found to be 8.3 nM. As for `O=c1nc(OCc2ccc(Oc3ccnc(C(F)(F)F)c3)c(F)c2)cc2n1CCC13CC(CN21)C3` [Example 13, 2-((3-fluoro-4-((2-(trifluoromethyl)pyrid-4-yl)oxy)benzyl)oxy)-6,7,9,10-tetrahydro-4H,8H-7a,9-methanopyri-mido[1,6-a]pyrrolo [1,2-c]pyrimidine-4-one], the IC50 was determined as 8.3 nM. Next, `O=c1nc(OCc2cc(F)c(Oc3ccc(Cl)c(C(F)(F)F)c3)c(F)c2)cc2n1CCC13CC(CN21)C3` [Example 14, 2-((4-(4-chloro-3-(trifluoromethyl)phenoxy)-3,5-di-fluorobenzyl)oxy)-6,7,9,10-tetrahydro-4H,8H-7a,9-methanopyrimido [1,6-a]pyrrolo[1,2-c] pyrimidine-4-one]: 8.8 nM; `Cc1cc(Oc2c(F)cc(COc3cc4n(c(=O)n3)CCC35CC(CN43)C5)cc2F)ccn1` [Example 15, 2-((3,5-difluoro-4-((2-methylpyrid-4-yl)oxy)benzyl)oxy)-6,7,9,10-tetra-hydro-4H,8H-7a,9-methanopyrimido [1,6-a]pyrrolo[1,2-c]pyrimidine-4-one]: 27.6 nM; `N#Cc1cc(COc2cc3n(c(=O)n2)CCC24CC(CN32)C4)ccc1Oc1cccc(C(F)(F)F)c1` [Example 16]: 9.2 nM. Regarding `O=c1nc(OCc2cc(F)c(Oc3ccnc(Cl)c3)c(F)c2)cc2n1CCC13CC(CN21)C3` [Example 17], the half-maximal inhibitory concentration (IC50) was 21.5 nM.

With `O=c1nc(OCc2cc(F)c(Oc3ccnc(OC(F)(F)F)c3)c(F)c2)cc2n1CCC13CC(CN21)C3` [Example 18], the IC50 came out at 11 nM. Regarding `O=c1nc(OCc2ccc(Oc3ccnc(C(F)F)c3)c(F)c2)cc2n1CCC13CC(CN21)C3` [Example 19], the half-inhibitory concentration (IC50) stood at 37 nM. The same measure for `O=c1nc(OCc2cc(F)c(Oc3cnc(C(F)(F)F)nc3)c(F)c2)cc2n1CCC13CC(CN21)C3` [Example 20, 2-((3,5-difluoro-4-((2-(trifluoromethyl)pyrimidin-5-yl)oxy)benzyl)oxy)-6,7,9,10-tetrahydro-4H,8H-7a,9-methano-pyrimido[1,6-a] pyrrolo[1,2-c] pyrimidine-4-one]: 37.5 nM; for `N#Cc1cc(COc2cc3n(c(=O)n2)CCC24CC(CN32)C4)ccc1F` [Example 21]: 24.2 nM. Next, `O=c1nc(OCCc2ccc(Oc3ccc(Cl)c(C(F)(F)F)c3)cc2)cc2n1CCC13CC(CN21)C3` [Example 22, 2-(4-(4-chloro-3-(trifluoromethyl)phenoxy)phenyl-ethoxy)-6,7,9,10-tetrahydro-4H,8H-7a,9-methano-pyrimido [1,6-a]pyrrolo[1,2-c] pyrimidine-4-one]: 120 nM; `O=c1nc(OCc2cc(F)c(Oc3ccnc(C(F)(F)F)c3)c(F)c2)cc2n1CC[C@@]13CO[C@@H](CN21)C3` [Example 23]: 4.9 nM.

As to `N#Cc1cc(COc2cc3n(c(=O)n2)CC[C@@]24CO[C@@H](CN32)C4)ccc1Oc1cccc(C(F)(F)F)c1` [Example 25], the half-maximal inhibitory concentration (IC50) is 6.5 nM. As for `O=c1nc(OCc2cc(F)c(Oc3ccnc(OC(F)(F)F)c3)c(F)c2)cc2n1CC[C@@]13CO[C@@H](CN21)C3` [Example 26], the concentration for half-maximal inhibition (IC50) worked out at 6.6 nM. Regarding `O=c1nc(OCc2cc(F)c(Oc3cnc(C(F)(F)F)nc3)c(F)c2)cc2n1CC[C@@]13CO[C@@H](CN21)C3` [Example 27], the IC50 was 4.6 nM. The same measure for `O=c1nc(OCCc2ccc(Oc3ccc(Cl)c(C(F)(F)F)c3)cc2)cc2n1CC[C@@]13CO[C@@H](CN21)C3` [Example 28, (7aR,10R)-2-(4-(4-chloro-3-(trifluoro-methyl)phenoxy)phenylethoxy)-6,7, 10,11-tetrahydro-4H,8H-7a,10-methanopyrimido [6′,1′:2,3] pyrimido[6,1-c] [1,4]oxazin-4-one]: 13.3 nM. The same measure for `O=c1nc(OCc2cc(F)c(Oc3ccnc(C(F)(F)F)c3)c(F)c2)cc2n1CCC1CCCN21` (stereo not shown) [Example 29, 2-((3,5-difluoro-4-((2-(trifluoromethyl)pyrid-4-yl)oxy)benzyl)oxy)-6,7,7a,8,9,10-hexahy-dro-4H-pyrimidinyl [1,6-a]pyrrolo [1,2-c]pyrimidine-4-one]: 54.1 nM; for `O=c1nc(OCc2cc(F)c(Oc3cnc(C(F)(F)F)nc3)c(F)c2)cc2n1CCC1CCCN21` (stereo not shown) [Example 31]: 97.1 nM; for `N#Cc1cc(COc2cc3n(c(=O)n2)CCC2CCCN32)ccc1Oc1cccc(C(F)(F)F)c1` (stereo not shown) [Example 32]: 45.7 nM. In the case of `O=c1nc(OCc2cc(F)c(Oc3ccc(Cl)c(C(F)(F)F)c3)c(F)c2)cc2n1CCC1CCCN21` (stereo not shown) [Example 33, 2-((4-(4-chloro-3-(trifluoromethyl)phenoxy)-3,5-di-fluorobenzyl)oxy)-6,7,7a,8,9,10-hexahydro-4H-pyrimidinyl [1,6-a]pyrrolo [1,2-c]pyrimidine-4-one], the half-inhibitory concentration (IC50) worked out at 24.7 nM. Take `CC12CCCN1c1cc(OCc3ccc(Oc4ccnc(C(F)(F)F)c4)c(F)c3)nc(=O)n1CC2` (stereo not shown) [Example 34, 2-((3-fluoro-4-((2-(trifluoromethyl)pyrid-4-yl)oxy)benzyl)oxy)-7a-methyl-6,7,7a,8,9,10-hexahydro-4H-pyri-midinyl[1,6-a] pyrrolo[1,2-c] pyrimidine-4-one]: the concentration for half-maximal inhibition (IC50) was determined as 9.9 nM.
